From patent publication US20120202693A1 (DOW AGROSCIENCES LLC, priority 2011, published 2012)
“And” between values parts separate entries of the source, which are not always exact repeats. Equal entries are not always repeated.

Experiments:
Format in all cases: in vivo
[1] = test system: Chinese sprangletop (Leptochloa chinensis, LEFCH); test: Postemergence herbicidal activity of mixtures in the greenhouse, visual weed control; conditions: 16 days after application
Experimental: (§1) Evaluation of Postemergence Herbicidal Activity of Mixtures in the Greenhouse
(§2) Seeds of the desired test plant species were planted in 80% mineral soil/20% grit planting mixture, which typically has a pH of 7.2 and an organic matter content of about 2.9 percent, in plastic pots with a surface area of 128 square centimeters (cm^2). The growing medium was steam sterilized. The plants were grown for 7-19 days in a greenhouse with an approximate 14-hour (h) photoperiod which was maintained at about 29° C. during the day and 26° C. during the night. Nutrients and water were added on a regular basis and supplemental lighting was provided with overhead metal halide 1000-Watt lamps as necessary. The plants were treated with postemergence foliar applications when they reached the second to fourth true leaf stage. All treatments were applied using a randomized complete block trial design, with 4 replications per treatment.
(§3) Compound requirements are based upon a 12 mL application volume at a rate of 187 liters per hectare (L/ha). Spray solutions of the mixtures were prepared by adding the stock solutions to the appropriate amount of dilution solution to form 12 mL spray solution with active ingredients in single and two way combinations. Formulated compounds were applied to the plant material with an overhead Mandel track sprayer equipped with 8002E nozzles calibrated to deliver 187 L/ha at a spray height of 18 inches ([…] (cm)) above average plant canopy. The weed spectrum included broadleaf signalgrass (Brachiaria platyphylla, BRAPP), yellow nutsedge (Cyperus esculentus, CYPES), barnyardgrass (Echinochloa crus-galli, ECHCG), momingglory (Ipomoea, hederacea, IPOHE), and Chinese sprangletop (Leptochloa chinensis, LEFCH).
(§4) The treated plants and control plants were placed in a greenhouse as described above and watered by sub-irrigation to prevent wash-off of the test compounds. Treatments were rated at 16 days after application (DAA) as compared to the untreated control plants. Visual weed control was scored on a scale of 0 to 100 percent where 0 corresponds to no injury and 100 corresponds to complete kill.
(§5) Colby's equation was used to determine the herbicidal effects expected from the mixtures (Colby, S. R. Calculation of the synergistic and antagonistic response of herbicide combinations. Weeds 1967 15, 20-22).
(§6) The following equation was used to calculate the expected activity of mixtures containing two active ingredients, A and B:
(§7) A=observed efficacy of active ingredient A at the same concentration as used in the mixture;
(§8) B=observed efficacy of active ingredient B at the same concentration as used in the mixture.

[2] = test system: barnyardgrass (Echinochloa crus-galli, ECHCG); test: as above; conditions: 16 days after application
Experimental: as §1, §2, §3, §4, §5, §6, §7, §8

[3] = test system: broadleaf signalgrass (Brachiaria platyphylla, BRAPP); test: as above; conditions: 16 days after application
Experimental: as §1, §2, §3, §4, §5, §6, §7, §8

[4] = test system: morningglory (Ipomoea hederacea, IPOHE); test: as above; conditions: 16 days after application
Experimental: as §1, §2, §3, §4, §5, §6, §7, §8

[5] = test system: yellow nutsedge (Cyperus esculentus, CYPES); test: as above; conditions: 16 days after application
Experimental: as §1, §2, §3, §4, §5, §6, §7, §8

[6] = test system: annual bluegrass (Poa annua, POAAN); test: Postemergence herbicidal activity of mixtures under field conditions (vines), visual weed control; conditions: 27 days after application
Experimental: (§9) Evaluation of Postemergence Herbicidal Activity of Mixtures under Field Conditions Methodology
(§10) Trial site was located in commercially grown vines of European grape (Vitis vinifera). The trial was conducted using normal research methodology. Trial plots were between 2 m wide by […] long. All treatments were applied using a randomized complete block trial design with 3 replications per treatment. The trial sites had naturally occurring populations of weeds. The weed spectrum included, but was not limited to, ryegrass (Lolium spp, LOLSS), scented mayweed (Matricaria chamomilla, MATCH), and annual bluegrass (Poa annua, POAAN).
(§11) Treatments consisted of tank mixes of an oil dispersion of penoxsulam and commercially available formulation of glyphosate applied in water. The application volume was 250 liters per hectare (L/ha). Application was made using a precision gas hand sprayer at 250 kPA pressure using a 2 m boom with flat fan (80015VS) nozzles to broadcast the treatments to the weeds and to the soil.
(§12) […] Ratings were based on Percent (%) Visual weed control, where 0 corresponds to no control and 100 corresponds to complete control.
as §5, §6, §7, §8

[7] = test system: ryegrass (Lolium spp, LOLSS); test: as above; conditions: 61 days after application
Experimental: as §9, §10, §11, §12, §5, §6, §7, §8

[8] = test system: scented mayweed (Matricaria chamomilla, MATCH); test: as above; conditions: 27 days after application
Experimental: as §9, §10, §11, §12, §5, §6, §7, §8

[9] = Penoxsulam 1.3 grams ai/ha alone
[10] = Penoxsulam 2.5 grams ai/ha alone
[11] = Penoxsulam 10 grams ai/ha alone
[12] = Penoxsulam 20 grams ai/ha alone
[13] = Glyphosate (IPA salt) 210 grams ai/ha alone
[14] = Glyphosate 720 grams ai/ha alone

Structure (SMILES): COc1cnc(OC)n2nc(NS(=O)(=O)c3c(OCC(F)F)cccc3C(F)(F)F)nc12 [Penoxsulam, 2-(2,2-difluoroethoxy)-N-(5,8-dimethoxy-[1,2,4]triazolo[1,5-c]pyrimidin-2-yl)-6-(trifluoromethyl)benzenesulfonamide]
- LEFCH Obs (Observed control) [1, 9]: 5%
- LEFCH Obs (Observed control) [1, 10]: 1%
- LEFCH Obs (Observed control) ([1]; Penoxsulam 5 grams ai/ha alone): 2%
- LEFCH Obs (Observed control) [1, 11]: 6.3% and 6%
- ECHCG Obs (Observed control) [2, 9]: 63%
- ECHCG Obs (Observed control) [2, 10]: 62%
- BRAPP Obs (Observed control) [3, 9]: 9%
- BRAPP Obs (Observed control) [3, 10]: 10%
- BRAPP Obs (Observed control) ([3]; Penoxsulam 5 grams ai/ha alone): 4%
- IPOHE Obs (Observed control) [4, 9]: 16%
- IPOHE Obs (Observed control) [4, 10]: 31%
- IPOHE Obs (Observed control) ([4]; Penoxsulam 5 grams ai/ha alone): 31%
- IPOHE Obs (Observed control) [4, 11]: 31%
- CYPES Obs (Observed control) [5, 9]: 5.8% and 6%
- CYPES Obs (Observed control) [5, 10]: 31.8% and 32%
- CYPES Obs (Observed control) ([5]; Penoxsulam 5 grams ai/ha alone): 44%
- CYPES Obs (Observed control) [5, 11]: 65%
- POAAN Obs (Observed control) [6, 12]: 0%
- LOLSS Obs (Observed control) [7, 12]: 0%
- MATCH Obs (Observed control) [8, 12]: 0%

Structure (SMILES): O=C(O)CNCP(=O)(O)O [Glyphosate, N-(phosphonomethyl)glycine]
- LEFCH Obs (Observed control) ([1]; Glyphosate (IPA salt) 53 grams ai/ha alone): 1%
- LEFCH Obs (Observed control) [1, 13]: 41%
- BRAPP Obs (Observed control) ([3]; Glyphosate (IPA salt) 110 grams ai/ha alone): 15%
- IPOHE Obs (Observed control) [4, 13]: 31%
- POAAN Obs (Observed control) [6, 14]: 93%
- LOLSS Obs (Observed control) [7, 14]: 60%
- MATCH Obs (Observed control) [8, 14]: 50%
